Test results published in PMC5061733, “SpyB, a Small Heme-Binding Protein, Affects the Composition of the Cell Wall in Streptococcus pyogenes” (Frontiers in Cellular and Infection Microbiology, 2016).
Where two headings read alike, the source gives them in different places.

Legend:
MBP-SpyB = conditions: read-out: Hemin, KD; 2.5 μM (Figure 5D; Methods: 5 μM) heme-free monomer, 20 mM HEPES, 100 mM NaCl, 1 mM DTT, pH 7.5, 20°C
[1] = biological target: T1, SpyB (synthetic SpyB peptide); test: tryptophan fluorescence quenching; format: binding, Streptococcus pyogenes; conditions: 5 μM SpyB, 20 mM HEPES, 100 mM NaCl, 1 mM DTT, pH 7.5, 20°C
T1 construct: chemically synthesized SpyB peptide (GenScript); SpyB is 35 residues; no tag mentioned
Text: tryptophan fluorescence quenching on SpyB (synthetic SpyB peptide)

C=CC1=C(C)C2=Cc3c(C=C)c(C)c4[n]3[Fe]([Cl])[n]3c(c(C)c(CCC(=O)O)c3=CC3=NC(=C4)C(C)=C3CCC(=O)O)=CC1=N2 [hemin]
Kd (MBP-SpyB): 12 µM
Kd ([1]; read-out: Hemin, KD): 2.6 µM

C=CC1=C(C)c2cc3[nH]c(cc4nc(cc5[nH]c(cc1n2)c(C)c5CCC(=O)O)C(CCC(=O)O)=C4C)c(C)c3C=C [protoporphyrin IX]
Kd ([1]; read-out: Protoporphyrin IX, KD): 4.9 µM
